Experimental data taken from patent publication US11224667B2, “11C-labeled catechol derivative, pet probe of phosphorylated tau aggregation inhibitor using the same, and production method of the same” (NATIONAL CENTER FOR GERIATRICS AND GERONTOLOGY, priority 2017, dated 2022).
Each block holds one compound with its values, some of them ahead of it.

Tests used:
[1] = test system: tau protein; conditions: cited from earlier work
[2] = Stability of isolated [11C]isoproterenol solution, radiochemical purity by HPLC; format: physicochemical
Description: Radiochemical purity and chemical purity of [2-^11C] isoproterenol in the solution after HPLC fractionation were analyzed by HPLC (CH3CN/acetic acid-ammonium acetate (pH 5.3), 10:90; column, CAPCELL PAK SCX UG 80, 4.6 (id)×150 mm; flow rate, 1 mL/min; UV detection, 278 nm; retention time, 6.5 min). [^11C] isoproterenol was confirmed by co-injection of unlabeled isoproterenol in HPLC. In the absence of addition of tartaric acid, the radiochemical purity immediately after isolation was 96%, whereas the radiochemical purity after 60 minutes dropped to 84% (see FIG. 3). […] This is presumed to be due to inhibition of deprotonation of two adjacent phenolic hydroxyl groups present in the catechol nucleus under acidic conditions and suppression of subsequent oxidative decomposition by oxygen molecules or superoxide. Also, the chemical purity measured at the above wavelength was >93%

[3] = test system: hyperphosphorylated tau-expressing mice; conditions: administered to hyperphosphorylated tau-expressing mice; cited from earlier work

Compound: NCCc1ccc(O)c(O)c1 [dopamine]
inhibition of aggregation of tau protein [1]: inhibited aggregation of tau protein

radiochemical purity after 60 minutes ([2]; solution after HPLC fractionation, absence of addition of tartaric acid, 60 minutes after isolation): 84% | radiochemical purity immediately after isolation ([2]; solution after HPLC fractionation, absence of addition of tartaric acid, immediately after isolation): 96%
Compound: CC(C)NCC(O)c1ccc(O)c(O)c1 (stereo not drawn) [[^11C] isoproterenol, [2-^11C] isoproterenol]
drop in radiochemical purity after 60 minutes ([2]; tartaric acid added, 60 minutes after isolation): no drop in radiochemical purity was observed

Compound: CC(C)NCC(O)c1ccc(O)c(O)c1 [D/L-isoproterenol]
inhibition of aggregation of tau protein [1]: particularly strongly suppresses aggregation of tau protein | abnormal behavior [3]: improvement of abnormal behavior | aggregation of tau protein [3]: suppression of aggregation of tau protein | nerve cell dropout [3]: suppression of nerve cell dropout

Compound: CNCC(O)c1ccc(O)c(O)c1 (stereo not drawn) [adrenaline]
inhibition of aggregation of tau protein [1]: inhibited aggregation of tau protein
